Measured values taken from PubChem BioAssay (NCI).
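These data come from cells grown in 96-well plates and exposed to compound for 48 hours at five concentrations. GI50: concentration for 50% inhibition of growth. TGI denotes the concentration required for complete inhibition of growth.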

Experiments:
Experiment in all cases: inhibition of tumour cell growth, NCI panel, 48 h
[1] = system: MALME-3M melanoma
[2] = system: SR leukemia
[3] = system: XF 498 CNS
[4] = system: ACHN renal
[5] = system: BT-549 breast
[6] = system: DU-145 prostate
[7] = system: HS 578T breast
[8] = system: MDA-MB-435
[9] = system: T-47D breast
[10] = system: DMS 273 small cell lung
[11] = system: HOP-18 NSCLC

| SMILES | TGI [1] | TGI [2] | TGI [3] | TGI [4] | TGI [5] | TGI [6] | TGI [7] | TGI [8] | TGI [9] | further results |
| --- | --- | --- | --- | --- | --- | --- | --- | --- | --- | --- |
| O=C1C(Cl)N(c2ccccc2Cl)C1c1c[nH]c2ccccc12 (stereo not drawn) | > 100 µM | > 100 µM | > 100 µM | – | – | – | – | – | – | – |
| Oc1ccc(C(=C(Br)c2ccccc2)c2ccc(O)cc2)cc1 | 18 µM | – | – | 21.7 µM | 15.4 µM | 25.7 µM | 22 µM | 3.45 µM | 46.2 µM | – |
| CN1C(=O)CC(=O)N1/C(=C/c1ccccc1)c1ccccc1 | – | > 100 µM | – | > 100 µM | > 100 µM | > 100 µM | 88.1 µM | > 100 µM | > 100 µM | – |
| O=C1c2cc3c(cc2-c2c1c1ccc(Cl)cc1c(=O)n2C[C@H](O)CO)OCO3 | – | 12.7 µM | – | 0.111 µM | – | 1.08 µM | – | 0.271 µM | > 100 µM | GI50 [4]: 0.0199 µM; GI50 [6]: 0.0323 µM; GI50 [8]: 0.0691 µM; GI50 [2]: < 0.01 µM; GI50 [9]: 0.0315 µM |
| CSCCC(C(=O)O)N(C)C (stereo not drawn) | > 100 µM | > 100 µM | – | > 100 µM | > 100 µM | > 100 µM | > 100 µM | > 100 µM | > 100 µM | – |
| O=C1c2cc(O)c(O)cc2O[C@H](c2ccc(O)c(O)c2)[C@H]1O | – | > 100 µM | – | > 100 µM | > 100 µM | > 100 µM | > 100 µM | > 100 µM | > 100 µM | – |
| C=C(C#N)C(=O)OCC(CC)CC.C=C(C#N)C(=O)OCC(CC)CC.CS(C)=O.CS(C)=O.Nc1c(N=Nc2ccc(-c3ccc(N=Nc4cc(S(=O)(=O)[O-])c5ccccc5c4N)cc3)cc2)cc(S(=O)(=O)[O-])c2ccccc12.[Pt+2] | 50 µM | – | 40.9 µM | – | – | – | – | – | – | GI50 [10]: 40.4 µM; TGI [10]: > 100 µM; GI50 [11]: 22 µM; TGI [11]: 53.9 µM; GI50 [1]: 21.8 µM; GI50 [3]: 21.1 µM |
| C=CCNC(=O)C(C)C1CCC2(C)C=CC(=O)C(C)=C2C1O (stereo not drawn) | – | – | > 100 µM | – | – | – | – | – | – | TGI [10]: > 100 µM; TGI [11]: > 100 µM |
